Experimental data as given in PMC7582876, “Antiproliferative Properties of a Few Auranofin-Related Gold(I) and Silver(I) Complexes in Leukemia Cells and their Interferences with the Ubiquitin Proteasome System” (Molecules, 2020).

How the values were obtained:
[1] = tested on: CEM/ADR5000 cells; assay: Resazurin cytotoxicity assay, multidrug-resistant CEM/ADR5000 leukemia cells; type: cell-based, human; settings: for IC50: cell growth, resazurin assay, 72 h incubation, IC50 ± SD, n = 3; for Degree of Resistance: ratio of IC50 of CEM/ADR5000 cells divided by IC50 of CCRF-CEM cells
Experimental: Drug-sensitive CCRF-CEM and multidrug-resistant (MDR) P-glycoprotein (P-gp)-over-expressing CEM/ADR5000 leukemic cells were kindly provided by Prof. Axel Sauerbrey (Department of Pediatrics, University of Jena, Germany). Cells were cultured in RPMA1640 medium including 10% fetal bovine serum (FBS) and 1% penicillin (1000 U/mL)/streptomycin (100 µg/mL) (Life Technologies, Darmstadt, Germany). Doxorubicin (5000 ng/mL) was added to maintain overexpression of P-gp (MDR1 and ABCB1) in CEM/ADR5000 cells. Doxorubicin was obtained from the University Pharmacy of the University Medical Center Mainz. CEM/ADR5000 cells display a more than 1000-fold resistance to doxorubicin [27] and are therefore a suitable model to identify novel drugs without or very low cross-resistance.
The cytotoxic effects of the compounds solved in DMSO (Sigma-Aldrich, Taufkirchen, Germany) were tested by the resazurin assay. This assay is based on reduction of the indicator dye, resazurin, to the highly fluorescent resorufin by viable cells. Cells lethally damaged by cytotoxic compounds rapidly lose the enzymatic capability to reduce non-fluorescent resazurin to the highly fluorescent resorufin. As the reductive potential happens in a dose-dependent manner, this chemical reaction can be exploited to quantitatively determine the cytotoxic potential of investigational compounds and to measure dose-response relationships. With increasing concentrations of a cytotoxic drug, the fluorescence signal fades out. Aliquots of 10,000 cells/100 µL cells were seeded into 96-well plates (Thermo-Scientific, Dreieich, Germany) and immediately treated with various concentrations of each compound. After 72 h incubation at 37 °C, 20 µL resazurin 0.01% w/v solution (Invitrogen, Dreieich, Germany) were added to each well, and the plates were maintained at 37 °C for 4 h. Fluorescence was measuring by an Infinite M2000 Proplate reader (Tecan, Crailsheim, Germany) with an excitation wavelength of 544 nm and an emission wavelength of 590 nm. Each experiment was done at least three times with six replicates each. The viability was analyzed in comparison with untreated cells. […] It is a well-established measure to determine the cytotoxic potential of anticancer drugs. The IC50 values were calculated from a calibration curve by linear regression using Microsoft Excel.

[2] = tested on: human cathepsin-L (Cat-L); assay: Cathepsin-L inhibition screening; type: biochemical; settings: over 10 min
Experimental: 20S proteasome, isolated and purified from human erythrocytes, was obtained from a commercial source (Biomol GmbH, Hamburg, Germany), as well as the peptidic substrates (Bachem, Bubendorf, Switzerland) Suc-Leu-Leu-Val-Tyr-AMC, Boc-Leu-Arg-Arg-AMC and Cbz-Leu-Leu-Glu-AMC for ChT-L, T-L and PGPH (C-L) activity of the enzyme, respectively. The three distinct proteolytic activities of the 20S proteasome were measured by monitoring the hydrolysis of the substrates and detecting the fluorescence of the common product released, i.e., 7-amino-4-methyl coumarin (7-AMC), by means of an Infinite 200 PRO microplate reader (Tecan, Männedorf, Switzerland) at 30 °C with a 380-nm excitation filter and a 460-nm emission filter. All gold and silver complexes were tested against the three proteolytic activities of the 20S proteasome and against Cat-B, Cat-L and bovine pancreatic α-chymotrypsin at 10 µM concentrations over a period of 10 min using an equivalent amount of DMSO as a negative control. […]. The IC50 values were calculated with the program GraFit® using the two-parameter equation. More detailed experimental protocols for the assays against each proteolytic activity of the 20S proteasome, as well as against bovine pancreatic α-chymotrypsin, are already reported elsewhere (see also Supplementary Materials). Cat-B and Cat-L were purchased from Calbiochem, Darmstadt, Germany, and the related assays were performed as previously described. The employed fluorogenic substrate for both cysteine proteases was Cbz-Phe-Arg-AMC (80 µM for Cat-B; 5 µM for Cat-L). […]
Assay for Cathepsin-B and Cathepsin-L Inhibition
Assays were performed at 25 °C in a 20 mM Tris-HCl buffer, pH 6.0, containing 5 mM
EDTA, 2.5 mM DTT, 200 mM NaCl, 0.005% Brij 35 in a total volume of 285 µL. Substrate
(Cbz-Phe-Arg-AMC for both enzymes) and inhibitor stock solutions were prepared in
DMSO (10% final concentration) and were diluted with assay buffer; enzymes were held
for CB (recombinant, human liver). Inhibitors were used at concentrations between 0.35
µM and 140 µM. Product release from substrate hydrolysis was determined over a period

[3] = target: T1, human cathepsin-B (Cat-B) (Homo sapiens, UniProt P07858); assay: Cathepsin-B inhibition screening; type: biochemical; settings: over 10 min
T1 construct: purchased Calbiochem, Darmstadt, Germany; host or cells: recombinant
Experimental: The IC50 values were calculated with the program GraFit® using the two-parameter equation. More detailed experimental protocols for the assays against each proteolytic activity of the 20S proteasome, as well as against bovine pancreatic α-chymotrypsin, are already reported elsewhere (see also Supplementary Materials). Cat-B and Cat-L were purchased from Calbiochem, Darmstadt, Germany, and the related assays were performed as previously described. […] Assay for Bovine Pancreatic α-Chymotrypsin Inhibition The enzyme ([…]) was incubated at 20 °C with the test compound present at 10 μM (screening assay). The reaction buffer consisted of 50 mM Tris buffer pH 8.0 containing 100 mM NaCl, 5 mM EDTA and 7.5% DMSO. Product release from substrate hydrolysis ([…] final concentration, Suc-[…] from Bachem) was determined over a period of 10 min. Assay for Cathepsin-B and Cathepsin-L Inhibition Assays were performed at 25 °C in a 20 mM Tris-HCl buffer, pH 6.0, containing 5 mM […] Substrate (Cbz-Phe-Arg-AMC for both enzymes) and inhibitor stock solutions were prepared in DMSO (10% final concentration) and were diluted with assay buffer; enzymes were held in buffer. The final substrate concentration for inhibition assays was between 10.0 and 81.0 […] for CB (recombinant, human liver). […] μM and 140 μM. Product release from substrate hydrolysis was determined over a period of 10 min.

| Compound | IC50 [1] [nM] | Degree of Resistance [1] | Cat-L Inhibition (%) at 10 µM [2] | Cat-B Inhibition (%) at 10 µM [3] |
| --- | --- | --- | --- | --- |
| CC[PH](CC)(CC)[Ag][Br] [Ag(PEt3)Br] | 3890 ± 700 | 2.59 | n.i. | n.i. |
| CC[PH](CC)(CC)[Ag][Cl] [Ag(PEt3)Cl] | 2640 ± 480 | 1.94 | n.i. | n.i. |
| CC[PH](CC)(CC)[Ag][I] [Ag(PEt3)I] | 1460 ± 150 | 1.14 | n.i. | n.i. |
| CCP(CC)CC.[Br][Au] [Au(PEt3)Br] | 270 ± 50 | 0.96 | n.i. | 31 ± 2.2% |
| CCP(CC)CC.[Au+].[Cl-] [Au(PEt3)Cl] | 260 ± 40 | 0.74 | n.i. | 29 ± 0.2% |
| CC[P](CC)(CC)[Au][I] [Au(PEt3)I] | 280 ± 80 | 0.87 | n.i. | 29 ± 1.7% |
| CCP(CC)CC.CCP(CC)CC.O=[N+]([O-])[O-].[Ag+] [[Ag(PEt3)2]NO3] |  | 3.05 | 20 ± 0.4% | n.i. |
| CC(=O)OC[C@H]1O[C@@H]([S-])[C@H](OC(C)=O)[C@@H](OC(C)=O)[C@@H]1OC(C)=O.CCP(CC)CC.[Au+] [auranofin, Auranofin] | 280 ± 60 | 1.27 | n.i. | n.i. |
